Key:
[1] = Solubility in 90% ethanol (Chinese Pharmacopeia method); format: physicochemical; settings: 25° C.±2° C., observed at 30 minutes
Description: The solution is observed at 30 minutes, and it is defined as complete dissolution when no solute particles or droplets are noticed.
• 1. Dissolve ginsenoside Rg3 in ethanol. • 100 mg test ginsenoside Rg3 was added to 100 ml of 90% ethanol at 25° C.±2° C., and forcefully shaken for 30 seconds every 5 minutes. […] Preparation of Rg3 solution in ethanol. • The ginsenoside Rg3-ethanol solution is prepared according to Rg3's solubility, and this solution will be used to determine the percentage of polyoxyethylene hydrogenated castor oil in formulation. • 3. Establishment of artificial gastric and intestinal environments. • The artificial gastric and intestinal fluids are prepared in accordance to experimental example 2. • 4. Determination of the proportion of protectant polyoxyethylene hydrogenated castor oil (Cremophor RH40) in ginsenoside Rg3-ethanol solution. • Polyoxyethylene hydrogenated castor oil (Cremophor RH40) at different proportions, from 5%-90%, is added to 100 ml ginsenoside Rg3-ethanol solution, and then the mixture is subjected to artificial gastric or intestinal fluids for stability test. […] The highest proportion as determined, i.e., 50% or 175 mg is adopted for drug preparation. • 5. […]
• 1. […] The highest proportion as determined, i.e., 40% or 150 mg is adopted for drug preparation. • 5. […]

[2] = oral, Dong et al. 2003; cited from earlier work

| SMILES | Amount completely dissolved in 100 ml 90% ethanol [1] | absorption rate from the GI tract [2] |
| --- | --- | --- |
| CC(C)=CCC[C@@](C)(O)[C@H]1CC[C@]2(C)[C@@H]1[C@H](O)C[C@@H]1[C@@]3(C)CC[C@H](O)C(C)(C)[C@@H]3CC[C@]12C [aPPD, protopanoxadiol sapogenin aPPD] | 40 mg | – |
| CC(C)=CCC[C@](C)(O)[C@H]1CC[C@]2(C)[C@@H]1[C@H](O)C[C@@H]1[C@@]3(C)CC[C@H](O[C@@H]4O[C@H](CO)[C@@H](O)[C@H](O)[C@H]4O[C@@H]4O[C@H](CO)[C@@H](O)[C@H](O)[C@H]4O)C(C)(C)[C@@H]3CC[C@]12C [Rg3, ginsenoside Rg3] | 100 mg | – |
| CC(C)=CCC[C@](C)(O)[C@H]1CC[C@]2(C)[C@@H]1[C@H](O)C[C@@H]1[C@@]3(C)CC[C@H](O[C@@H]4O[C@H](CO)[C@@H](O)[C@H](O)[C@H]4O)C(C)(C)[C@@H]3CC[C@]12C [Rh2, ginsenoside Rh2] | – | 3.4% |
| CC(C)=CCC[C@](C)(O[C@@H]1O[C@H](CO)[C@@H](O)[C@H](O)[C@H]1O)[C@H]1CC[C@]2(C)[C@@H]1[C@H](O)C[C@@H]1[C@@]3(C)CC[C@H](O)C(C)(C)[C@@H]3[C@@H](O[C@@H]3O[C@H](CO)[C@@H](O)[C@H](O)[C@H]3O)C[C@]12C [Rg1, ginsenoside Rg1] | – | 1.9% |
| CC(C)=CCC[C@](C)(O[C@@H]1O[C@H](CO[C@@H]2O[C@H](CO)[C@@H](O)[C@H](O)[C@H]2O)[C@@H](O)[C@H](O)[C@H]1O)[C@H]1CC[C@]2(C)[C@@H]1[C@H](O)C[C@@H]1[C@@]3(C)CC[C@H](O[C@@H]4O[C@H](CO)[C@@H](O)[C@H](O)[C@H]4O[C@@H]4O[C@H](CO)[C@@H](O)[C@H](O)[C@H]4O)C(C)(C)[C@@H]3CC[C@]12C [Rb1] | – | 1% |
